Assay results as given in ChEMBL document CHEMBL4354785, “Recent insights into natural product inhibitors of matrix metalloproteinases” (Medchemcomm, 2019).

Experiments:
[1] = target: 72 kDa type IV collagenase (Homo sapiens, UniProt P08253); test: Inhibition of recombinant human MMP2 using fluorescently conjugated gelatin as substrate
[2] = target: T1, Matrix metalloproteinase-9 (Homo sapiens, UniProt P14780); test: Inhibition of human MMP9 (107 to 707 residues) expressed in Escherichia coli BL21(DE3) cells
[3] = target: T1, Matrix metalloproteinase-9; test: Inhibition of human MMP9 catalytic domain using Mca-PLGL-Dpa-AR-NH2 as substrate by fluorescence method

Sequence of 72 kDa type IV collagenase (P08253 whole entry, the tested form may be a part): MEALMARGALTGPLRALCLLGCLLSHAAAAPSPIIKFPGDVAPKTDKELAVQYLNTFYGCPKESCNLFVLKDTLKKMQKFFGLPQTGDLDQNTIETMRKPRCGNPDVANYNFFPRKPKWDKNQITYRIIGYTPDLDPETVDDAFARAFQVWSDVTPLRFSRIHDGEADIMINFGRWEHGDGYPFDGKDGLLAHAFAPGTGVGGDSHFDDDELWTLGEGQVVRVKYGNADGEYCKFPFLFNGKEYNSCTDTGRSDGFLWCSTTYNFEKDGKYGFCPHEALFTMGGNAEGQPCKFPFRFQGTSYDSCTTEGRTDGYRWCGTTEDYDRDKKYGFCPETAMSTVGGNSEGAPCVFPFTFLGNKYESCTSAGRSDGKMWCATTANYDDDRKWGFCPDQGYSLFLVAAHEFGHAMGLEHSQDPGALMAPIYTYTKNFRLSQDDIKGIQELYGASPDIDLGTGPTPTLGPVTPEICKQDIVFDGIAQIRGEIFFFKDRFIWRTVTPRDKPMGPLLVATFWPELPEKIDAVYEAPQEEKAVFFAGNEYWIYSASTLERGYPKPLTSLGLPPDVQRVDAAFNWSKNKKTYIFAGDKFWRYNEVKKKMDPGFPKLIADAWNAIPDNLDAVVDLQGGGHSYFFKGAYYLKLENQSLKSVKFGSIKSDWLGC
T1 sequence (P14780 whole entry, the tested form may be a part): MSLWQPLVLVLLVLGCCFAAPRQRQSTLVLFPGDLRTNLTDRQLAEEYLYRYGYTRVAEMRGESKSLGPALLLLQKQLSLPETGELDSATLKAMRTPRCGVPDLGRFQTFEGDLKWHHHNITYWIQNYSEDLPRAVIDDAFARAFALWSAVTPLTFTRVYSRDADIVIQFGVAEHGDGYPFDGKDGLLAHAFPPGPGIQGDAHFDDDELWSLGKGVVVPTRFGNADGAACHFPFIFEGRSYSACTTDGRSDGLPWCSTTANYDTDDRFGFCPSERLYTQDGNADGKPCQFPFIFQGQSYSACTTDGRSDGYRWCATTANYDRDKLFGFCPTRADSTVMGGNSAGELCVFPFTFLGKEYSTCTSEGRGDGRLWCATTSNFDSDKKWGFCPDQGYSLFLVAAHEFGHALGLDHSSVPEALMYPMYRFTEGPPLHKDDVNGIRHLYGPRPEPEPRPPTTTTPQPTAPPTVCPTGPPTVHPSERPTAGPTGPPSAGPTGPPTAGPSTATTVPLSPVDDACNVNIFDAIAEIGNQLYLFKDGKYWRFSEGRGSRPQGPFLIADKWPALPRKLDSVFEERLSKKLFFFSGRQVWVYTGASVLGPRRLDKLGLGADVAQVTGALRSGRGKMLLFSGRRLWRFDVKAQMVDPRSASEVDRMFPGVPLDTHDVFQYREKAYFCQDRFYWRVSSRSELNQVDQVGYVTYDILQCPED

IC50 [1] [µM] | SMILES | other results
6.5 | CCCCC/C=C/CCCCCCCc1cccc(O)c1C(=O)O | –
– | O=C(/C=C/c1ccc(O)c(O)c1)Oc1ccc2c(c1)C(=O)OCC2 | IC50 [2]: 1.39 µM
– | COc1ccc(/C=C/C(=O)O[C@H](C(=O)O)[C@](O)(Cc2ccc(O)c(O)c2)C(=O)O)cc1O [CIMICIFUGIC ACID B] | IC50 [3]: 13.4 µM
6.3 | CCCCCC/C=C\CCCCCCCc1cccc(O)c1C(=O)O [GINGKOLIC ACID] | –
